Assay results from paper PMC8566451, “Lead optimization of novel quinolone chalcone compounds by a structure–activity relationship (SAR) study to increase efficacy and metabolic stability” (Scientific Reports, 2021).
Where two headings read alike, the source gives them in different places.

Assays:
HeLa cells = test: Cell cycle analysis by flow cytometry; type: cell-based, human
Method: Figure 5 CTR-21 arrests cells at G2/M, eventually leading to cell death by apoptosis. (a) Effects of CTR-21 on the cell cycle progression of HeLa and E112 cells. […] (b) Cell morphology of CTR-21 arrested cells. HeLa cells were treated with 30 nM of CTR-21 for 12 h, fixed with methanol and immunostained with α-tubulin or γ-tubulin, and counterstained with DAPI. Bar = […]. (c) CTR-21 promotes PARP cleavage. […] GAPDH was used as a loading control.
Cell cycle progression was determined using flow cytometry. UKRV-Mel-38 and HeLa cells were plated onto 10 cm plate at a density of 0.5 million and treated them with or without the compounds the following day for 12, 24 or 48 h. Cells were then harvested and centrifuged at 1000 rpm for 5 min, washed in PBS and then fixed with ice-cold ethanol (70%) for at least 24 h at − 20 °C. The cells were centrifuged, re-suspended in PBS solution, followed by centrifugation. The cell pellet was then stained with 100 μg/mL propidium iodide (PI) and 100 μg/mL RNase A in distilled water for at least 1 h. DNA content was measured using a Beckmann Coulter Cytomics FC500 (Beckman Coulter, Fullerton, CA), and the proportion of cell populations in G0/G1, S, and G2/M phases of cell cycle was calculated on the basis of DNA distribution histograms using CXP software (Beckman Coulter, Fullerton, CA).

porcine tubulin = target: T1, porcine tubulin (Sus scrofa, UniProt P02550+P02554); test: In vitro tubulin polymerization assay; type: biochemical; conditions: 20 µM porcine tubulin; for effect on tubulin polymerization: 3 µM compound, 37 °C, 60 min; for effect on tubulin polymerization at higher concentrations: 10, 15 and 20 µM compound
T1 construct: purchased Cytoskeleton Inc., Denver, CO BK011P
T1 sequence (P02554 whole entry): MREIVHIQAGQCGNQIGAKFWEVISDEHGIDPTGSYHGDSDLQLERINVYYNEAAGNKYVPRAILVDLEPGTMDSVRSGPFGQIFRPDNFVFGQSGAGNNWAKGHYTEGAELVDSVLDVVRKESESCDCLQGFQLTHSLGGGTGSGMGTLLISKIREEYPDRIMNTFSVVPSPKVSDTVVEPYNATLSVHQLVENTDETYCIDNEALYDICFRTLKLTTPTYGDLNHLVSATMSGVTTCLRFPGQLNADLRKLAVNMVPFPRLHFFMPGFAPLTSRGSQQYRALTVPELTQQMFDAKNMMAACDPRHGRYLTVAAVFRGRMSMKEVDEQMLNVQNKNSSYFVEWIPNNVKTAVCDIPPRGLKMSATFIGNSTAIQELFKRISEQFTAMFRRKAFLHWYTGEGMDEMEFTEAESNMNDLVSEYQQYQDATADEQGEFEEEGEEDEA
T1 sequence (P02550 whole entry): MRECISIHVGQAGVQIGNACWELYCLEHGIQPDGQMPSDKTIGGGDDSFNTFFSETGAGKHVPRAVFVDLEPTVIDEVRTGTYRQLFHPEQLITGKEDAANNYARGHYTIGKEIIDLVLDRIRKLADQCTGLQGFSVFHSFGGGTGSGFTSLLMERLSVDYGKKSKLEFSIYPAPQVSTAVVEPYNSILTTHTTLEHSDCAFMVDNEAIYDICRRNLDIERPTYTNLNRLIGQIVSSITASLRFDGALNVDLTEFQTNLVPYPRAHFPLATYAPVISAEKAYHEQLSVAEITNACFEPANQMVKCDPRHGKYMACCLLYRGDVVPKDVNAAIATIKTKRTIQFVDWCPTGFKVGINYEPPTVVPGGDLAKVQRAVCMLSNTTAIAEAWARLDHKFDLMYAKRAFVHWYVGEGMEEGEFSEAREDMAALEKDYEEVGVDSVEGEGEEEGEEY
Method: Spontaneous polymerization of 20 µM porcine tubulin was initiated with the addition of 1 mmol/L GTP at 37 °C and monitored every minute for 60 min in the presence of the indicated concentration of CTR-21, CTR-32, nocodazole, paclitaxel, or a DMSO vehicle control. To make the graph simpler, only 3 µM concentration is shown. […] A modified Dixon plot was used to determine the inhibitory concentration of CTR-21 and CTR-32 (Ki).
Microtubule assembly was assessed using a Tubulin Polymerization assay kit (BK011P; Cytoskeleton Inc., Denver, CO). […] Polymerization was started by incubating at 37 °C and followed by absorbance readings every 1 min at 340 nm for 1 h using a Synergy H4 plate reader.

MDA-MB231-TaxR = test: Sulforhodamine B (SRB) assay; type: cell-based; conditions: Homo sapiens, MDA-MB231-TaxR paclitaxel-resistant breast cancer cells, 48 h
Excerpt: We had initially determined that quinolone chalcones were promising anti-proliferative through a first round screening and identified CTR-17 and CTR-20 as favorable structures for anticancer activity. […] We carried out a comparative SAR study to determine if we could further optimize the quinolone chalcone to maximize efficacy. The Sulforhodamine B (SRB) assay was used to measure the anti-proliferative/cell killing activities of CTRs, for which several different cell lines were use: the cervical cancer HeLa, the breast cancer cell lines MDA-MB231, MDA-MB468, MDA-MB231TaxR (an induced paclitaxel-resistant sub-cell line of the MDA-MB231[9]) and MCF7. In addition, a subset was tested against the melanoma cell lines MZ-MEL-3.1, Mel-SOE, UKRV-Mel-38, UKRV-Mel-17 and MDA-MB-435 (Table 1, Supplemental Table S1).
(§1) The SRB assay was used to assess drug-induced cytotoxicity and cell proliferation as previously described[2],[33],[34] with a few modifications. Briefly, cells were plated 10,000 to 25,000 cells/cm^2 in 96-well plates (100 µl medium) and allowed to adhere overnight. The cell counts were different for each cell line to ensure optimal cell growth for the duration of the assay. Eight different concentrations of compound solutions using 2–4 times serial dilutions (100 µl). Cells were then incubated for an additional 48 h and then fixed with 100 µl ice-cold 10% (w/v) trichloroacetic acid (TCA) (without removing the cell medium, final concentration, 3.3% of TCA) and stained with 0.4% SRB (w/v) in 1% acetic acid (v/v). The relative growth rate (%) was calculated for each of the compound concentrations according to the following formula: 100 * (T − T0)/(C − T0), in which T is the optical density (OD) after exposure to a certain concentration of the compound after 48 h, T0 is the OD at the start of drug exposure (time zero) and C is the control growth. The GI50 for each compound was obtained from a non-linear sigmoidal dose–response (variable slope) curve fitted by GraphPad Prism v.4.03 software.

[1] = tested on: primary human epidermal melanocytes; test: GI50 on primary skin cells; type: cell-based; conditions: for GI50: Homo sapiens, Melanocyte, primary skin cells; for Selectivity Index (primary skin cells): primary melanocytes versus average GI50 of cancer cells
Method: The human MDA-MB-231, MCF7, MDA-MB-468, RPMI-8226 and HeLa cell lines were purchased from ATCC and maintained in Dulbecco's Modified Eagle Medium (DMEM)—high glucose supplemented with 10% fetal bovine serum (FBS) and antibiotics/antimycotics. Cell line authentication was carried out by Genetica DNA Laboratories (Burlington, NC) using a short tandem repeat (STR) profiling method (March 2015; July 2015; September 2016). Melanoma cells E-055 (MZ-Mel-3), E-097 (Mel-SOE), E-112 (UKRV-Mel-38), E-157 (UKRV-Mel-17) were obtained from the European Searchable Tumour Line Database (ESTDAB) cell bank (a kind gift of Dr. Graham Pawelec, Tubingen University, Germany). MDA-MB-435 was purchased from the Division of Cancer Treatment and Diagnosis Tumor Repository. All melanoma cells were cultured in Roswell Park Memorial Institute (RPMI) medium supplemented with 10% FBS and P/S/antimycotics. Primary human epidermal melanocytes from normal adult abdominal skin were purchased from ATCC (cat # PCS-200–013) and Cell Applications (cat#104-05a). The melanocytes were cultured in the media supplied by the companies.
as §1

[2] = Melanocytes #1, read-out: GI50 Melanocytes #1
[3] = Melanocytes #2, read-out: GI50 Melanocytes #2

| Compound | cell cycle effect (HeLa cells; HeLa, 30 nM, by 12 h, maintained after 24 h) | effect on tubulin polymerization (porcine tubulin) | effect on tubulin polymerization at higher concentrations (porcine tubulin) | GI50 (MDA-MB231-TaxR) | GI50 [1, 2] | GI50 [1, 3] | Selectivity Index (primary skin cells) [1] | cell cycle effect (HeLa cells; 3× GI50, 12 or 24 h, HeLa and UKRV-Mel-38 (Supplemental Fig. S11)) |
| --- | --- | --- | --- | --- | --- | --- | --- | --- |
| COc1ccccc1C(=O)/C=C/c1cc2cccc(OC)c2[nH]c1=O [CTR-21, (E)-8-methoxy-3-(3-(2-methoxyphenyl)-3-oxoprop-1-enyl) quinolin-2(1H)-one] | arrest in G2/M | reduced steady-state | did not appreciably increase the inhibition of tubulin dynamics | 32 ± 8 nM | 2090 ± 804 nM | 3050 ± 960 nM | 157 | – |
| CCOc1ccccc1C(=O)/C=C/c1cc2ccccc2[nH]c1=O [CTR-32, (E)-3-(3-(2-ethoxyphenyl)-3-oxoprop-1-enyl)quinolin-2(1H)-one] | – | does not affect the steady state dynamics or Vmax of tubulin polymerization | almost completely inhibited the formation of microtubule polymers | 22 ± 4 nM | 2630 ± 782 nM | 3630 ± 1080 nM | 158 | arrests the cells in G2/M |
